Patent US20130034597A1, “ORALLY BIOAVAILABLE PEPTIDE DRUG COMPOSITIONS AND METHODS THEREOF” (AEGIS THERAPEUTICS LLC, priority 2011, published 2013)
Positions of bridges follow the written chain, without caps; N, C: chain ends. Non-standard residues stand in square brackets, D forms with d. Residues, ends and D or L forms follow the SMILES beside them. d2Nal = N[C@H](Cc1ccc2ccccc2c1)C(=O)O

What was measured:
[1] = molecular target: somatostatin receptor (SSTR) subtype 2 (Homo sapiens, UniProt P30874); conditions: cited from earlier work
[2] = intranasal delivery; cited from earlier work
[3] = Maximum water solubility of TEEE; assay type: physicochemical
Procedure: The compound described is a selective IL-23 receptor antagonist peptide comprising D-amino acids with the formula cyclo-D-[…] (SEQ ID NO: 3), where any amino acid is a D-amino acid, MW: ca. 1039, hereafter designated TEEE, supplied by Allostera Pharma as a dry powder, and is formulated for intravenous at 0.02 and 0.2 mg/mL in sterile saline by dilution of an initial stock prepared at 2 mg/mL. Additionally, 4 different formulations of dry TEEE are prepared in gelatin capsules. For each type of dry formulation 10 capsules are prepared to contain enough test article in a way to deliver ca 2.5, 5.0 or 10 mg/kg. […] Solutions and capsules are stored at ca 4° C. upon until dose administration. The intravenous formulation is kept at room temperature pending dose administration. The final appearance of the intravenous formulations consists of clear solutions.

[4] = Clinical signs during the TEEE pharmacokinetic study; assay type: in vivo, Male Sprague-Dawley rats; conditions: oral (2.5-10 mg/kg capsules) or intravenous (0.1, 1 mg/kg) administration, rats
Source text: Male Sprague-Dawley rats are ca 8-9 week old at onset of treatment (weight at onset of treatment, 348-398 g). Animals are allocated into groups of 3 rats/group. Immediately following arrival, animals are uniquely identified via an eartag. Animals are purchased from Charles River Canada (St-Constant, Canada). Following an examination by a qualified In-Life Specialist (including body weight determination), animals are acclimated to the testing facilities for ca 72 hr prior to test article administration. Room conditions are: temperature ca 20° C., humidity ca 50%. Animals are housed in solid bottom polycarbonate cages equipped with a filter top to avoid contamination, fed with standard certified rodent food (brand and lot no. to be documented in the raw data). The animals had continuous access to RO/UV water, via bottles. All rats are administered the compounds intravenously (Groups 1 and 2) in a jugular vein under light isoflurane anesthesia or orally by capsule (one per animal) using a specially designed capsule delivery tube (Groups 3-14). The dose volume is 5.0 ml/kg for groups 1 and 2 and one capsule/animal for Groups 3 to 14. Prior to dosing, each animal is weighed and the weight recorded. […] Plasma concentrations of each compound are determined using an LCMS assay (non-GLP) with an analytical range of ca 25-1000 ng/mL. […]

Sequence of somatostatin receptor (SSTR) subtype 2 (P30874 whole entry): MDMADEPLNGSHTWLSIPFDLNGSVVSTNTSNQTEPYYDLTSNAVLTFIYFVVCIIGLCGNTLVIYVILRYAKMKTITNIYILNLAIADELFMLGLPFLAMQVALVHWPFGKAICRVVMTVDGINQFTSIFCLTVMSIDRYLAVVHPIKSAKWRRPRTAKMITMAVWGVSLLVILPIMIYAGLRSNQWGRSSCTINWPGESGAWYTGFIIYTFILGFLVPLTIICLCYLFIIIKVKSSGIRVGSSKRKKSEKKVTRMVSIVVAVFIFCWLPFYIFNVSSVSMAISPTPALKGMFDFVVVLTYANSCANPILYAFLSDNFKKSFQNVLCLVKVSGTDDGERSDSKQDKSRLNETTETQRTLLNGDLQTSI

For `CC(C)[C@@H]1NC(=O)[C@H](CCCCN)NC(=O)[C@@H](Cc2c[nH]c3ccccc23)NC(=O)[C@H](Cc2ccc(O)cc2)NC(=O)[C@H](NC(=O)[C@H](N)Cc2ccc3ccccc3c2)CSSC[C@H](C(=O)N[C@H](C(N)=O)[C@@H](C)O)NC1=O` [lanreotide, (4S,7S,10S,13R,16S,19S)-10-(4-aminobutyl)-19-[[(2R)-2-amino-3-naphthalen-2-yl-propanoyl]amino]-N-[(1S,2R)-1-carbamoyl-2-hydroxy-propyl]-16-[(4-hydroxyphenyl)methyl]-13-(1H-indol-3-ylmethyl)-6,9,12,15,18-pentaoxo-7-propan-2-yl-1,2-dithia-5,8,11,14,17-pentazacycloicosane-4-carboxamide] (H-[d2Nal][dC]Y[dW]KV[dC]T-NH2; disulfide 2-7), the binding affinity [1] is listed as “high”.

In the case of calcitonin, the average bioavailability [2] is listed as “about 3%”.

For “cyclo-D-TEEEQQYL (cyclo([dT][dE][dE][dE][dQ][dQ][dY][dL]); SMILES CC(C)C[C@H]1NC(=O)[C@@H](Cc2ccc(O)cc2)NC(=O)[C@@H](CCC(N)=O)NC(=O)[C@@H](CCC(N)=O)NC(=O)[C@@H](CCC(=O)O)NC(=O)[C@@H](CCC(=O)O)NC(=O)[C@@H](CCC(=O)O)NC(=O)[C@@H]([C@H](C)O)NC1=O)”, the maximum water solubility [3] was “approximately 10 mg/mL” and the clinical signs [4] was “No clinical signs”.
